What was measured:
[1] = target: T1, human recombinant serotonin (5-Hydroxytryptamine) 5-HT5A receptor (Homo sapiens, UniProt P47898); experiment: Serotonin 5-HT5A radioligand binding ([3H]LSD); conditions: compound at 0.1 μM; read-out: Inhibition of ligand binding, Serotonin 5-HT5A (percent inhibition of specific binding)
T1 construct: expressed in transfected cells; host or cells: CHO-K1
Experimental: Compounds of the invention were incubated with 1.7 nM [^3H]Lysergic acid diethylamide (LSD) for 60 min at 37° C. […] Receptor proteins were filtered and washed, the filters were counted to determine [^3H]LSD specifically bound.

[2] = target: T2, human recombinant histamine H1 receptor (Homo sapiens, UniProt P35367); experiment: Histamine H1 radioligand binding ([3H]Pyrilamine); conditions: read-out: Histamine H1 Binding (1 μM), percent inhibition of specific binding; compound at 1 μM; 1.2 nM [3H]Pyrilamine
T2 construct: expressed in transfected cells; host or cells: CHO-K1
Procedure, shortened: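 Results expressed as percent inhibition of specific [3H]pyrilamine binding, counted on filters after washing. Receptor source: CHO-K1 cells expressing recombinant human H1, in modified Tris-HCl buffer (50 mM, pH 7.4; 2 mM MgCl2, 100 mM NaCl, 250 mM sucrose). 1 μM pyrilamine defined non-specific binding.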

[3] = target: T3, human recombinant serotonin (5-Hydroxytryptamine) 5-HT7 receptor (Homo sapiens, UniProt P34969); experiment: Serotonin 5-HT7 radioligand binding ([3H]LSD); conditions: compound at 0.1 μM; read-out: Inhibition of ligand binding, Serotonin 5-HT7 (percent inhibition of specific binding)
T3 construct: expressed in transfected cells; host or cells: CHO
Experimental: Lysergic acid diethylamide (LSD) for 120 min. at 25° C. […] Receptor proteins were filtered and washed, the filters were then counted to determine [^3H]LSD specifically bound.

[4] = target: T4, human recombinant serotonin (5-Hydroxytryptamine) 5-HT2C receptor (Homo sapiens, UniProt P28335); experiment: Serotonin 5-HT2C radioligand binding ([3H]Mesulergine); conditions: compound at 0.1 μM; read-out: Inhibition of ligand binding, Serotonin 5-HT2C (percent inhibition of specific binding)
T4 construct: expressed in transfected cells; host or cells: CHO-K1
T4 sequence (P28335 33-458): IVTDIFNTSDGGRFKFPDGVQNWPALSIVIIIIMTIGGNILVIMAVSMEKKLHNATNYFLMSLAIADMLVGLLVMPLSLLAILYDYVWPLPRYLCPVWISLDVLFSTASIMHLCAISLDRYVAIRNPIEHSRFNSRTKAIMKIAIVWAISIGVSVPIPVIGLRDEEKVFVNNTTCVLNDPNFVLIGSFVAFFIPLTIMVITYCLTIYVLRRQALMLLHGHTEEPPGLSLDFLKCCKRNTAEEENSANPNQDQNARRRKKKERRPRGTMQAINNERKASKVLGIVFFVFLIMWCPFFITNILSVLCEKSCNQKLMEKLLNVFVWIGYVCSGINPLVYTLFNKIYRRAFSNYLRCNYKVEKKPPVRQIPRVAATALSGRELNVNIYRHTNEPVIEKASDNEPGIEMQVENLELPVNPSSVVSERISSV
Experimental: Compounds of the invention were incubated with 1 nM [^3H]Mesulergine for 60 min at 25° C. Non-specific binding was estimated in the presence of 1 μM Mianserin. Receptor proteins were filtered and washed, the filters were then counted to determine [^3H]Mesulergine specifically bound.

[5] = target: T5, human recombinant serotonin (5-Hydroxytryptamine) 5-HT6 receptor (Homo sapiens, UniProt P50406); experiment: Serotonin 5-HT6 radioligand binding ([3H]LSD); conditions: compound at 0.1 μM; read-out: Inhibition of ligand binding, Serotonin 5-HT6 (percent inhibition of specific binding)
T5 construct: expressed in transfected cells; host or cells: HeLa
From the text: Receptor proteins were filtered and washed, the filters were then counted to determine [3H]LSD specifically bound.

[6] = target: T6, human recombinant adrenergic α2C receptor (Homo sapiens, UniProt P18825); experiment: Adrenergic α2C radioligand binding ([3H]MK-912); conditions: read-out: Adrenergic (0.1 μM) a2C, percent inhibition of specific binding; compound at 0.1 μM; 1 nM [3H]MK-912
T6 construct: expressed in transfected cells; host or cells: insect Sf9 cells
T6 sequence (P18825 1-462): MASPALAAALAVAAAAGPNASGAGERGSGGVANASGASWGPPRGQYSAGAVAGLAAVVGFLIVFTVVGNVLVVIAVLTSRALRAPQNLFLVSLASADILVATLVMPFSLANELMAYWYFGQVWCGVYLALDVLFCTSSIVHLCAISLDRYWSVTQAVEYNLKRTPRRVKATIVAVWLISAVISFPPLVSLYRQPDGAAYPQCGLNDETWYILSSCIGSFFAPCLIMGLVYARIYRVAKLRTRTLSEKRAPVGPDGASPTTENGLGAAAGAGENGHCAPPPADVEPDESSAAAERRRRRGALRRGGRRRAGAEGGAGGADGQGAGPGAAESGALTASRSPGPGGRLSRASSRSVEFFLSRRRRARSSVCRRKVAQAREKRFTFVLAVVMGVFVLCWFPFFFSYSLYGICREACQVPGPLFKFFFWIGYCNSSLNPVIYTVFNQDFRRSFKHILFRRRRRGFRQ
Experimental: To evaluate in radioligand binding assays the activity of compounds of the invention, human recombinant adrenergic α2C receptor expressed in insect Sf9 cells (Uhlen, S. et al, J. Pharmacol. Exp. Ther. 271:1558, 1994) in a modified Tris-HCl buffer (50 mM Tris-HCl, pH 7.4, 12.5 mM MgCl2, 2 mM EDTA) was used. Compounds of the invention were incubated with 1 nM [^3H]MK-912 for 60 min at 25° C. Non-specific binding was estimated in the presence of 10 μM WB-4101. Receptor proteins were filtered and washed, the filters were then counted to determine [^3H]MK-912 specifically bound. […] Compounds of the invention were tested in this biochemical assay and percent inhibition of specific binding was determined.

T1 sequence (P47898 whole entry): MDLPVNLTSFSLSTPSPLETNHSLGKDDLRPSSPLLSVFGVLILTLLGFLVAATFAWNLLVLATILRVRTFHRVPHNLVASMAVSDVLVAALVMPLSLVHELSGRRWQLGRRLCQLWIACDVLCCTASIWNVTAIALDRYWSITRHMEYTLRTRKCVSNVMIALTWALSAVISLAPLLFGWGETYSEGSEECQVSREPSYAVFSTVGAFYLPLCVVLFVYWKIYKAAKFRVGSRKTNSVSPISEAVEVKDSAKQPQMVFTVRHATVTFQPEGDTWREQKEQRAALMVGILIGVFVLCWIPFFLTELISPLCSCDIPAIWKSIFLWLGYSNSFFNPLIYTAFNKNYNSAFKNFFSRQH
T5 sequence (P50406 whole entry): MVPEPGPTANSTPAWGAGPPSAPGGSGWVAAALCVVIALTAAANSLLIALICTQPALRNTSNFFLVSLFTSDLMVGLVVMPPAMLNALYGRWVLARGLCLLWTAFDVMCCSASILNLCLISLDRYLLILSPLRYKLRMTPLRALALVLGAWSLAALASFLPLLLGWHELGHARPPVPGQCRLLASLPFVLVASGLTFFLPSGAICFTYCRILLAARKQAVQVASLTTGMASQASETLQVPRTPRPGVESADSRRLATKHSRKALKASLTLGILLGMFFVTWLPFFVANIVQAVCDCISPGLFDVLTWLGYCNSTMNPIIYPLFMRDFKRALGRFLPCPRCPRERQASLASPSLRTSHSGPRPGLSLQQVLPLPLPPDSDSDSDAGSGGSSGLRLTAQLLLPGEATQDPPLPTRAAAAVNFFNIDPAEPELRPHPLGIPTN
T2 sequence (P35367 whole entry): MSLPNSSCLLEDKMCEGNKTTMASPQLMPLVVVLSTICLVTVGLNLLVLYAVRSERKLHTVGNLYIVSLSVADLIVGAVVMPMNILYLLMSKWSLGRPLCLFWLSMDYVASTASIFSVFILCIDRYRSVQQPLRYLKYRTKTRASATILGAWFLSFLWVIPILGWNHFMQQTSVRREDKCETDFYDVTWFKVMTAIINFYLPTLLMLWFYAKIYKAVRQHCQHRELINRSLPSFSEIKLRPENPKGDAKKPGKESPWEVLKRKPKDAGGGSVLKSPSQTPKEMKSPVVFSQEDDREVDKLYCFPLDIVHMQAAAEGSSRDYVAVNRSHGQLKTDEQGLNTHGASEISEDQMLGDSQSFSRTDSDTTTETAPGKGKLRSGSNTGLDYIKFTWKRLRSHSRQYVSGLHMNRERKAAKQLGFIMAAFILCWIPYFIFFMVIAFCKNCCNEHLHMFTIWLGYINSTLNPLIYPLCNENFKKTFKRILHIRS
T3 sequence (P34969 whole entry): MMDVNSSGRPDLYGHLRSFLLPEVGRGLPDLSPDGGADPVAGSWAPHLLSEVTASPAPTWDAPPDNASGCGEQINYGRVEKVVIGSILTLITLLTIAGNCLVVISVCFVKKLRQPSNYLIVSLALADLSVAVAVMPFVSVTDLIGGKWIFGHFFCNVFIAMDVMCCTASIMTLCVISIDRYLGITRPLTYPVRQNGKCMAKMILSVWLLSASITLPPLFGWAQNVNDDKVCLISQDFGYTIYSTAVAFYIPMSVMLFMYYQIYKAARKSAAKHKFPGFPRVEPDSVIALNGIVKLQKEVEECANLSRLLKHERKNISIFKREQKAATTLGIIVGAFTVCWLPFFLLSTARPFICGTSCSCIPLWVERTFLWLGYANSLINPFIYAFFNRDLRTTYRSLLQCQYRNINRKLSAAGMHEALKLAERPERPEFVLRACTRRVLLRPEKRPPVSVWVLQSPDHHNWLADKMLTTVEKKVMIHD

Row | Structure (SMILES) | inhibition at 0.1 µM [1] | inhibition at 1 µM [2] | inhibition at 0.1 µM [3] | inhibition at 0.1 µM [4] | inhibition at 0.1 µM [5] | inhibition at 0.1 µM [6]
1 | CC(=O)Nc1ccc(-c2cscc2-n2c3c(c4cc(C)ccc42)CN(C)CC3)cn1 [Compound 56] | 51% | 10% | 70% | 38% | 16% | 2%
2 | Cc1ccc2c(c1)c1c(n2-c2cscc2-c2cc3ccccc3s2)CCN(C)C1 [Compound No. 151] | 102% | 11% | 90% | 47% | 28% | 52%
3 | Cc1ccc2c(c1)c1c(n2-c2cccc(-c3ccc(S(C)(=O)=O)cc3)c2)CCN(C)C1 [Compound No. 131, 2,8-dimethyl-5-(4′-(methylsulfonyl)biphenyl-3-yl)-2,3,4,5-tetrahydro-1H-pyrido[4,3-b]indole] | 19% | 20% | 2% | -6% | -3% | 13%
4 | Cc1ccc2c(c1)c1c(n2-c2ccc(-c3cnc(N(C)C)nc3)cn2)CCN(C)C1 [Compound No. 138, 5-(6-(2,8-dimethyl-3,4-dihydro-1H-pyrido[4,3-b]indol-5(2H)-yl)pyridin-3-yl)-N,N-dimethylpyrimidin-2-amine] | 13% | 7% | 6% | 86% | -6% | -2%
5 | Cc1csc(-c2cccc(-n3c4c(c5cc(C)ccc53)CN(C)CC4)c2)c1 [Compound No. 63, 2,8-dimethyl-5-(3-(4-methylthiophen-2-yl)phenyl)-2,3,4,5-tetrahydro-1H-pyrido[4,3-b]indole] | 25% | 31% | 25% | 77% | 5% | 10%
6 | Cc1ccc2c(c1)c1c(n2-c2ccc(-c3cnn(C)c3)cn2)CCN(C)C1 [Compound No. 134, 2,8-dimethyl-5-(5-(1-methyl-1H-pyrazol-4-yl)pyridin-2-yl)-2,3,4,5-tetrahydro-1H-pyrido[4,3-b]indole] | -4% | 6% | 4% | 96% | -2% | -2%
7 | Cc1ccc2c(c1)c1c(n2-c2ccccc2-c2ccc3c(ccn3C)c2)CCN(C)C1 [Compound No. 85, 2,8-dimethyl-5-(2-(1-methyl-1H-indol-5-yl)phenyl)-2,3,4,5-tetrahydro-1H-pyrido[4,3-b]indole] | 50% | 8% | 26% | 50% | 49% | 46%
8 | Cc1ccc2c(c1)c1c(n2-c2cscc2-c2cncc3ccccc23)CCN(C)C1 [Compound 34] | 56% | 6% | 43% | 54% | 11% | 5%
9 | Cc1ccc2c(c1)c1c(n2-c2ccccc2-c2ccc(C)nc2)CCN(C)C1 [Compound 59, 2,8-dimethyl-5-(2-(6-methylpyridin-3-yl)phenyl)-2,3,4,5-tetrahydro-1H-pyrido[4,3-b]indole] | 31% | 27% | 48% | 46% | 17% | 25%
10 | Cc1ccc2c(c1)c1c(n2-c2cccc(-c3ccc(C)nc3)c2)CCN(C)C1 [Compound 60, 2,8-dimethyl-5-(3-(6-methylpyridin-3-yl)phenyl)-2,3,4,5-tetrahydro-1H-pyrido[4,3-b]indole] | 62% | 32% | 41% | 53% | 3% | 21%
11 | Cc1ccc2c(c1)c1c(n2-c2ccc3nc(C)ccc3c2)CCN(C)C1 [Compound No. 157, 2,8-dimethyl-5-(2-methyl-quinolin-6-yl)-2,3,4,5-tetrahydro-1H-pyrido[4,3-b]indole] | 20% | -17% | 16% | 88% | 22% | -1%
12 | Cc1ccc2c(c1)c1c(n2-c2ccc(-c3c(C)noc3C)cn2)CCN(C)C1 [Compound No. 137, 4-(6-(2,8-dimethyl-3,4-dihydro-1H-pyrido[4,3-b]indol-5(2H)-yl)pyridin-3-yl)-3,5-dimethylisoxazole] | 31% | 3% | 40% | 75% | 2% | -1%
13 | Cc1ccc2c(c1)c1c(n2-c2cscc2-c2ccc(F)nc2)CCN(C)C1 [Compound 35] | 66% | 3% | 93% | 74% | 21% | 47%
14 | Cc1ccc2c(c1)c1c(n2-c2cscc2C(=O)N(C)C)CCN(C)C1 [Compound No. 152] | 14% | 16% | 15% | 22% | 22% | 12%
15 | Cc1cc(C)c2c(c1)c1c(n2-c2cccc3ncccc23)CCN(C)C1 [Compound 47] | 29% | 42% | 36% | 32% | 18% | 11%
16 | CNC(=O)c1ccc(-c2ccccc2-n2c3c(c4cc(C)ccc42)CN(C)CC3)cn1 [Compound No. 71, 5-(2-(2,8-dimethyl-3,4-dihydro-1H-pyrido[4,3-b]indol-5(2H)-yl)phenyl)-N-methylpicolinamide] | 29% | 18% | 27% | 15% | -7% | -1%
17 | Cc1ccc2c(c1)c1c(n2-c2ccc(-c3ccc(F)cc3)cn2)CCN(C)C1 [Compound No. 140, 5-(5-(4-fluorophenyl)pyridin-2-yl)-2,8-dimethyl-2,3,4,5-tetrahydro-1H-pyrido[4,3-b]indole] | 52% | 10% | 41% | 100% | 41% | 53%
